The METLIN SMRT retention time set (Domingo-Almenara et al. 2019)

Assay: gradient 5% acetonitrile 3 min, to 50% in 2 min, to 85% in 15 min, held 3 min, 100 µL/min
Details: column: Zorbax Extend-C18 2.1 x 50 mm; eluents: water / acetonitrile, 0.1% formic acid
How it was run: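 Pure standards were run in mixtures of ~100 molecules by HPLC coupled to a quadrupole time-of-flight mass spectrometer. The column was a Zorbax Extend-C18 (2.1 × 50 mm, 1.8 μm) at 100 μL/min, with water and acetonitrile each containing 0.1% formic acid, in positive and negative ionization mode. Dead and dwell volumes were 40 μL and 900 μL. Retention time was taken from computationally picked adduct peaks, each manually inspected, with data collected over 3 months.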

Row | Structure (SMILES) | RP-LC retention time [s]
1 | O=c1n(Cc2cccc(F)c2)nc2c(S(=O)(=O)N3CCOCC3)cccn12 | 741
2 | COCCNC(=O)Cn1c(CO)cnc1SCC(=O)Nc1ccc2c(c1)OCCO2 | 554
3 | COc1ccc(-c2nnc(SCC(=O)Nc3nccs3)o2)cc1 | 720
4 | Fc1ccc(-c2csc(Nc3ccccn3)n2)cc1 | 896
5 | Cn1cc(C(=O)N2CCC(c3noc(-c4ccccc4)n3)C2)cn1 (centres undefined) | 712
6 | O=C(Nc1ccc(F)cc1Cl)c1cnc(-c2ccccc2)nc1-c1ccncc1 | 976
7 | Cc1c(-c2ccnc(N3CCN(C)CC3)n2)cnc2nc(SCc3ccccc3)nn12 | 672
8 | O=C(C1CCN(c2cnc3nccnc3c2)CC1)N1CCCCC1 | 648
9 | Cc1ccc(S(=O)(=O)N(C)CC2(C)CCOCC2)cc1F | 957
10 | COc1ccc(-c2csc(NC(=O)CS(=O)(=O)c3ccc(C)cc3)n2)cc1OC | 893
11 | O=C(Cn1ncc2c(N3CCN(c4ccccn4)CC3)ncnc21)N1CCN(c2ccccc2)CC1 | 603
12 | CNC(=O)[C@@H]1CN(S(=O)(=O)C(C)C)C[C@H]1c1n[nH]c(C)n1 | 570
13 | CCCCN1CC(=O)N(c2cccc(Cl)c2)[C@@H]2CS(=O)(=O)C[C@@H]21 | 790
14 | CCCn1cc(CCNC(=O)Nc2ccc(F)c(Cl)c2)c2cccnc21 | 835
15 | COCCN1CCn2cc(S(=O)(=O)Nc3ccc(F)cc3F)cc2C1=O | 694
16 | COc1ccc2[nH]cc(CCO)c2c1 | 660
17 | COc1ccc(-c2cn3c(CC(=O)Nc4cccc(Cl)c4)csc3n2)cc1OC | 791
18 | O=C1NCCCn2cc(S(=O)(=O)Nc3ccc(F)c(F)c3)cc21 | 676
19 | CCOCC1CCC2(CCN(C(=O)Cn3c(=O)oc4cc(Cl)ccc43)CC2)O1 (centres undefined) | 900
20 | OC(c1ccc(C(F)(F)F)cc1)c1cccnc1 (centres undefined) | 630
21 | N#CCCSc1nnc2sc3ccccc3n12 | 828
22 | COc1ccc(C2C(C(=O)NCC3CCCO3)CCC(=O)N2c2cc(OC)c(OC)c(OC)c2)cc1 (centres undefined) | 631

Row | Structure (SMILES) | RP-LC retention time [s]
23 | CCOCC(=O)Nc1cccc(OCc2nnc(-c3ccc(OC)cc3)o2)c1 | 830
24 | Cc1ccn2cc(-c3cccc(NS(=O)(=O)c4cc(C)c(C)cc4C)c3)nc2c1 | 732
25 | CC1CCN(CCCNc2ccc(-c3nc(-c4ccc(F)cc4)no3)cn2)CC1 | 740
26 | CN(C1CCCCC1)S(=O)(=O)N1CCCC(C(=O)NCc2ccc3c(c2)OCO3)C1 (centres undefined) | 954
27 | CCS(=O)(=O)NCc1ccc2c(c1)CCN2C(=O)CC(C)C | 794
28 | CCN(CC)C(=O)c1ccc2oc(CN3CCN(C(=O)NCc4ccco4)CC3)nc2c1 | 626
29 | CCN1C(=O)c2cccnc2Sc2cc(NC(=O)c3cccc(F)c3)ccc21 | 844
30 | COC(=O)c1ncn2c1C(=O)N(Cc1ccccc1Cl)C(C)(C(=O)NCc1ccccc1)C2 (centres undefined) | 762
31 | CN1C(=O)c2cc(C(=O)NCc3ccccc3)nn2CC1(C)C(=O)NCc1ccccc1 (centres undefined) | 685
32 | Cc1cc(CN2CC(F)(F)C[C@H]2c2nnc(-c3ccccc3)o2)n(C)n1 | 806
33 | CCOc1ccc(NS(=O)(=O)c2cc(-c3cc(C(F)(F)F)on3)sc2C)cc1 | 1120
34 | Cc1ccccc1-c1nc(N)n(C(=O)C2CC2)n1 | 876
35 | CCOc1cc(=O)n2c(c1C(=O)NC1CC1)CCCCC2 | 611
36 | Cc1nn(C)c2c(N3CCC(C(=O)N4CCN(CC(=O)N5CCOCC5)CC4)CC3)nccc12 | 560
37 | O=C(Nc1ccc2c(c1)OCCO2)N1CCc2nn(CC3CC3)c(=O)n2CC1 | 703
38 | CCS(=O)(=O)N1CCC(N2C(=O)[C@H](OCCOC)[C@@H]2c2ccncc2)CC1 | 561
39 | COc1ccccc1CCNC(=O)C1CN(C(=O)c2ccc(F)c(F)c2)C1 | 731
40 | Cc1ccc(NC(=O)CCc2nc(CSc3nnc(-c4ccccc4)o3)no2)cc1Cl | 1030
41 | COc1ccc(OC)c(CNC(=O)c2c(C)oc3c2C2=NCCN2C=N3)c1 | 638
42 | Cn1ncc(N2CCC(C(=O)Nc3ccc4oc(-c5ccncc5)nc4c3)C2)cc1=O (centres undefined) | 642
43 | Cc1ccc(CNC(=O)CCc2ccc3nc(-c4ccccc4)[nH]c3c2)o1 | 625
44 | NC(=O)Cc1csc(SCC(=O)c2ccc3c(c2)OCO3)n1 | 648
